Patent EP4790048A1, “S1PR4 REGULATOR COMPOUND FOR AUTOIMMUNE DISEASE TREATMENT AND APPLICATION THEREOF” (Shengyuan Zetong (Shanghai) Pharmaceutical Co., Ltd, priority 2023, dated 2025)
“Also recorded” adds a separate entry of the source. Read-outs that look alike come from different tables or passages of the source.

Key:
hS1P1 = target: T1, hS1P1 (Homo sapiens, UniProt P21453); assay: Tango β-arrestin recruitment luciferase assay, Tango-hS1P1-CHO; type: cell-based; conditions: S1PR1; Tango-S1PR1-CHO-K1 cells; mean ± SD; read-out: EC50
T1 construct: expressed in transfected cells; host or cells: CHO
Procedure, shortened: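 CHO Tango cells (receptor–V2 tail–TEV/tTA fusion, β-arrestin 2–TEV, UAS-luciferase reporter) plated overnight (20 h) at 37°C, then treated 20 h with compounds, top final 45 µM, 9 five-fold dilutions, triplicates. Luciferase luminescence read; BAF-312 positive control at 1 µM (S1PR1) or 25 µM (S1PR4).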

S1PR2 = target: T2, S1PR2 (Homo sapiens, UniProt O95136); assay: FLIPR assay, S1PR2-CHO cell line; type: cell-based; conditions: mean ± SD
T2 construct: expressed in transfected cells

[1] = Pharmacokinetic property testing in rats; type: in vivo, SD rats; conditions: for CL_obs / Vss_obs / AUC(0-t) / Cmax / half-life / Tmax / F (%): male SD rats; for AUC(0-t) / Cmax / half-life / Tmax / bioavailability: Sprague-Dawley, rat, in vivo; for Tmax: 3 per group; for bioavailability: male, oral, 10 mg/kg; for F (%): oral bioavailability, PO 10 mg/kg vs IV 1 mg/kg
Description: In the structure-activity relationship discussion, the inventors obtained key compound 22. Based on compound 22, the polar head of the compound was modified as chiral pyrrolidine carboxylic acid, yielding selective S1PR4 agonists 30 and 67. We conducted pharmacokinetic property analyses on compounds 22, 30, and 67, respectively.

MRL/lpr mice = assay: Systemic lupus erythematosus model, MRL/lpr mice; type: in vivo; conditions: for renal pathology (HE and PAS staining): 8 weeks of treatment
Experimental: Based on this, the inventor conducted efficacy evaluation on this compound using MRL/lpr mice, a classic model of lupus erythematosus.
The efficacy of Compound 67 was evaluated using MRL/Lpr lupus model mice.
The specific groups were as follows: MPJ control group, model group, positive drug Cenerimod group at 0.5 mg/kg, and Compound 67 at two doses: 1 mg/kg and 3 mg/kg.

mouse = assay: DSS mouse acute UC model, dosing concurrent with modeling (Example 7); type: in vivo; conditions: intragastric, Compound 30 0.3, 1, 3 mg/kg, Compound 67 1 mg/kg; for colon length: positive control RPC1063 1 mg/kg
Experimental: Mouse models were established using DSS, with the protocol being 2.5% DSS in drinking water for 5 days followed by ad libitum normal drinking water for 2 days. Intragastric administration was performed concurrently with modeling, and RPC1063 was used as the positive control drug. The specific groupings were as follows: RPC1063 was administered intragastrically at 1 mg/kg. Compound 30 was tested at three doses: 0.3 mg/kg, 1 mg/kg, and 3 mg/kg. Compound 38 was administered at 5 mg/kg, while Compounds 53, 67, 77, and 80 were each administered at 1 mg/kg.

[2] = Compound 67 1 mg/kg and 3 mg/kg, 8 weeks, vs SLE model group

T2 sequence (O95136 whole entry, species assumed): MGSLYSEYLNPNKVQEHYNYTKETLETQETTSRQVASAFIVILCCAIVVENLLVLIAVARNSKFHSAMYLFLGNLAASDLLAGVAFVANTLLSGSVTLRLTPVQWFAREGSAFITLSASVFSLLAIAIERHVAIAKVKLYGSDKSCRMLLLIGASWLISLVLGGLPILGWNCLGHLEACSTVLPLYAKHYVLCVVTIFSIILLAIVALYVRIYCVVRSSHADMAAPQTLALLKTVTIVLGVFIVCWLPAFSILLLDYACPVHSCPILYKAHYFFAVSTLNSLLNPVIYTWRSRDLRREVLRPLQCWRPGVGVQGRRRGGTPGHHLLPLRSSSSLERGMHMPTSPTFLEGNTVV
T1 sequence (P21453 whole entry): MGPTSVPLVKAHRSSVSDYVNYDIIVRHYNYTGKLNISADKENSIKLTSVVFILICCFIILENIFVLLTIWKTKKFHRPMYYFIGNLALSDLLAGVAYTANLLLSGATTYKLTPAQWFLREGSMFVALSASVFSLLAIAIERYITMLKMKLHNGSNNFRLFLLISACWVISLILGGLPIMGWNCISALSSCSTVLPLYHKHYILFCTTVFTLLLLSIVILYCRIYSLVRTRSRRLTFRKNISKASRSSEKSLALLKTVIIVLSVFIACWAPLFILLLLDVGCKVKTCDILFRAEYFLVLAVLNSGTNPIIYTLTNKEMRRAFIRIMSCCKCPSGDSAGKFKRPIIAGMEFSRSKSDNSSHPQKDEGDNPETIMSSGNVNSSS

| Compound | EC50 (hS1P1) [nM] | EC50 (S1PR2; read-out: EC50) [nM] | CL_obs ([1]; IV (1 mg/kg)) [mL/min/kg] | Vss_obs ([1]; IV (1 mg/kg)) [L/kg] | CL_obs ([1]; PO (10 mg/kg)) [mL/min/kg] | Vss_obs ([1]; PO (10 mg/kg)) [L/kg] | AUC(0-t) ([1]; IV (1 mg/kg)) [ng·h/mL] | Cmax ([1]; IV (1 mg/kg)) [ng/mL] | half-life ([1]; IV (1 mg/kg)) [h] | Tmax ([1]; IV (1 mg/kg)) [h] | AUC(0-t) ([1]; PO (10 mg/kg)) [ng·h/mL] | Cmax ([1]; PO (10 mg/kg)) [ng/mL] | half-life ([1]; PO (10 mg/kg)) [h] | Tmax ([1]; PO (10 mg/kg)) [h] | bioavailability [1] [%] | F (%) [1] [%] | renal pathology (HE and PAS staining) (MRL/lpr mice; vs SLE model group) | serum anti-nuclear / anti-double-stranded DNA antibody level (MRL/lpr mice; 8 weeks, vs SLE model group) | Th1- and Th17-positive cells in spleen, Th1/Th2 and Th17/Treg ratios (MRL/lpr mice; vs SLE model group) | DAI scores (mouse) | also measured |
| --- | --- | --- | --- | --- | --- | --- | --- | --- | --- | --- | --- | --- | --- | --- | --- | --- | --- | --- | --- | --- | --- |
| CCc1cc(/C(C)=N/OCc2ccc(-c3ccccc3)c(C)c2)ccc1CN1CC[C@H](C(=O)O)C1 [Compound 30] | 87.6 ± 3.35 | > 10000 | 20.2 ± 7.33 | 3.59 ± 1.16 | 17 ± 1.3 | 4.08 ± 0.32 | 824 ± 284 | 438 ± 82.6 | 2.15 ± 0.06 | 0.08 | 9860 ± 794 | 1030 ± 91.9 | 2.78 ± 0.12 | 2 | 120 | 119.7 | improves renal pathological injury; also recorded: renal interstitial inflammatory cell infiltration was significantly reduced | dose-dependently reduces; also recorded: markedly decreased | regulates the number and ratio of T lymphocytes; also recorded: significantly reduce the number of Th1- and Th17-positive cells | favorable effects | EC50 (S1PR2): no agonist activity; subcutaneous nodules (MRL/lpr mice; SLE mice, vs model): dose-dependently reduces; also recorded: significantly reduced subcutaneous nodules; body weight gain and mortality (MRL/lpr mice; continuous administration for 8 weeks, vs SLE model group): reduces the mortality rate; also recorded: prevented body weight gain and reduced mortality in a dose-dependent manner; body weight (mouse): concentration-dependent recovery; colon length (mouse): significant efficacy |
| CCc1cc(/C(C)=N/OCc2ccc(-c3cnc(F)cn3)c(C)c2)ccc1CN1CC[C@H](C(=O)O)C1 [Compound 67, (S, E)-1-(2-ethyl-4-(1-(((4-(5-fluoropyrazin-2-yl)-3-methylbenzyl)oxy)imino)ethyl)benzyl)pyrrolidine-3-carboxylic acid] | 195 ± 16 | > 10000 | 19.8 ± 0.67 | 1.52 ± 0.02 | 25.8 ± 4.5 | 4.88 ± 1.17 | 836 ± 27 | 958 ± 45.9 | 1.18 ± 0.01 | 0.08 | 6370 ± 1510 | 986 ± 277 | 2.17 ± 0.11 | 1.83 ± 1.89 | 76.2 | 76.21 | inflammatory cell infiltration was significantly reduced | significantly reduces the anti-double-stranded DNA antibody level; also recorded: significantly reduce the level of anti-double-stranded DNA antibody | regulates the number and ratio of T lymphocytes; also recorded: significantly reduce the number of Th1- and Th17-positive cells | favorable effects | serum creatinine level (MRL/lpr mice; [2]): significantly reduce the serum creatinine level; urinary microalbumin level (MAU) (MRL/lpr mice; [2]): significantly reduced the urinary microalbumin level; body weight (mouse): less body weight loss; colon length (mouse): significant efficacy |
